Activity calls are given as the source filed them. No rule for the calls is given here.
System: CCRIS mutagenicity, Ames/micronucleus/aberration tests
Experiment: CCRIS mutagenicity studies

Measured: mutagenic call

NC(N)=S
inactive: Test System: AMES SALMONELLA TYPHIMURIUM, Strain/Indicator: TA97, Metabolic Activation: HAMSTER, LIVER, S-9, AROCLOR 1254 (10 OR 30%), Method: PREINCUBATION inactive; negative | Test System: AMES SALMONELLA TYPHIMURIUM, Strain/Indicator: TA97, Metabolic Activation: NONE, Method: PREINCUBATION inactive; negative | Test System: AMES SALMONELLA TYPHIMURIUM, Strain/Indicator: TA97, Metabolic Activation: NONE, Method: STANDARD PLATE inactive; negative | Test System: AMES SALMONELLA TYPHIMURIUM, Strain/Indicator: TA97, Metabolic Activation: RAT, LIVER, S-9, AROCLOR 1254 (10 OR 30%), Method: PREINCUBATION inactive; negative | Test System: AMES SALMONELLA TYPHIMURIUM, Strain/Indicator: TA97, Metabolic Activation: RAT, LIVER, S-9, AROCLOR 1254, Method: STANDARD PLATE inactive; negative | Test System: AMES SALMONELLA TYPHIMURIUM, Strain/Indicator: TA98, Metabolic Activation: HAMSTER, LIVER, S-9, AROCLOR 1254 (10 OR 30%), Method: PREINCUBATION inactive; negative | Test System: AMES SALMONELLA TYPHIMURIUM, Strain/Indicator: TA98, Metabolic Activation: NONE, Method: PREINCUBATION inactive; negative | Test System: AMES SALMONELLA TYPHIMURIUM, Strain/Indicator: TA98, Metabolic Activation: NONE, Method: STANDARD PLATE inactive; negative | Test System: AMES SALMONELLA TYPHIMURIUM, Strain/Indicator: TA98, Metabolic Activation: RAT LIVER S-9, PHENOBARBITAL AND BETA-NAPHTHOFLAVONE, Method: PREINCUBATION inactive; negative | Test System: AMES SALMONELLA TYPHIMURIUM, Strain/Indicator: TA98, Metabolic Activation: RAT, LIVER, S-9, AROCLOR 1254 (10 OR 30%), Method: PREINCUBATION inactive; negative | Test System: AMES SALMONELLA TYPHIMURIUM, Strain/Indicator: TA98, Metabolic Activation: RAT, LIVER, S-9, AROCLOR 1254, Method: STANDARD PLATE inactive; negative | Test System: AMES SALMONELLA TYPHIMURIUM, Strain/Indicator: TA100, Metabolic Activation: HAMSTER, LIVER, S-9, AROCLOR 1254 (10 OR 30%), Method: PREINCUBATION inactive; negative | Test System: AMES SALMONELLA TYPHIMURIUM, Strain/Indicator: TA100, Metabolic Activation: NONE, Method: PREINCUBATION inactive; negative | Test System: AMES SALMONELLA TYPHIMURIUM, Strain/Indicator: TA100, Metabolic Activation: NONE, Method: STANDARD PLATE inactive; negative | Test System: AMES SALMONELLA TYPHIMURIUM, Strain/Indicator: TA100, Metabolic Activation: RAT LIVER S-9, PHENOBARBITAL AND BETA-NAPHTHOFLAVONE, Method: PREINCUBATION inactive; negative | Test System: AMES SALMONELLA TYPHIMURIUM, Strain/Indicator: TA100, Metabolic Activation: RAT, LIVER, S-9, AROCLOR 1254 (10 OR 30%), Method: PREINCUBATION inactive; negative | Test System: AMES SALMONELLA TYPHIMURIUM, Strain/Indicator: TA100, Metabolic Activation: RAT, LIVER, S-9, AROCLOR 1254, Method: STANDARD PLATE inactive; negative | Test System: AMES SALMONELLA TYPHIMURIUM, Strain/Indicator: TA1535, Metabolic Activation: HAMSTER, LIVER, S-9, AROCLOR 1254 (10 OR 30%), Method: PREINCUBATION inactive; negative | Test System: AMES SALMONELLA TYPHIMURIUM, Strain/Indicator: TA1535, Metabolic Activation: NONE, Method: PREINCUBATION inactive; negative | Test System: AMES SALMONELLA TYPHIMURIUM, Strain/Indicator: TA1535, Metabolic Activation: RAT LIVER S-9, PHENOBARBITAL AND BETA-NAPHTHOFLAVONE, Method: PREINCUBATION inactive; negative | Test System: AMES SALMONELLA TYPHIMURIUM, Strain/Indicator: TA1535, Metabolic Activation: RAT, LIVER, S-9, AROCLOR 1254 (10 OR 30%), Method: PREINCUBATION inactive; negative | Test System: AMES SALMONELLA TYPHIMURIUM, Strain/Indicator: TA1537, Metabolic Activation: NONE, Method: PREINCUBATION inactive; negative | Test System: AMES SALMONELLA TYPHIMURIUM, Strain/Indicator: TA1537, Metabolic Activation: RAT LIVER S-9, PHENOBARBITAL AND BETA-NAPHTHOFLAVONE, Method: PREINCUBATION inactive; negative | Test System: E. COLI, Strain/Indicator: WP2 UVRA, Metabolic Activation: HAMSTER, LIVER, S-9, AROCLOR 1254, Method: STANDARD PLATE inactive; negative | Test System: E. COLI, Strain/Indicator: WP2 UVRA, Metabolic Activation: HAMSTER, LIVER, S-9, Method: STANDARD PLATE inactive; negative | Test System: E. COLI, Strain/Indicator: WP2 UVRA, Metabolic Activation: MOUSE, LIVER, S-9, AROCLOR 1254, Method: STANDARD PLATE inactive; negative | Test System: E. COLI, Strain/Indicator: WP2 UVRA, Metabolic Activation: MOUSE, LIVER, S-9, Method: STANDARD PLATE inactive; negative | Test System: E. COLI, Strain/Indicator: WP2 UVRA, Metabolic Activation: NONE, Method: STANDARD PLATE inactive; negative | Test System: E. COLI, Strain/Indicator: WP2 UVRA, Metabolic Activation: RAT, LIVER, S-9, AROCLOR 1254, Method: STANDARD PLATE inactive; negative | Test System: E. COLI, Strain/Indicator: WP2 UVRA, Metabolic Activation: RAT, LIVER, S-9, Method: STANDARD PLATE inactive; negative | Test System: E.COLI, Strain/Indicator: WP2UVRA/PKM101, Metabolic Activation: NONE, Method: PREINCUBATION inactive; negative | Test System: E.COLI, Strain/Indicator: WP2UVRA/PKM101, Metabolic Activation: RAT LIVER S-9, PHENOBARBITAL AND BETA-NAPHTHOFLAVONE, Method: PREINCUBATION inactive; negative | Test System: MOUSE LYMPHOMA, Strain/Indicator: L5178Y (TK+/TK-), Metabolic Activation: NONE, Method: SUSPENSION/PLATE inactive; negative

Reference: PubChem BioAssay AID1259407 (Chemical Carcinogenesis Research Information System (CCRIS), 2018)
